Key:
Assay in all cases: Ba/F3 drug screening, Cell Titer Glo, IC50 Mut/WT
Assay type in all cases: cell-based
EGFR L833F = molecular target: T1, EGFR L833F (Homo sapiens, UniProt P00533, L833F); details: Classical-Like, 72 hours
T1 construct: expressed in transfected cells; host or cells: Ba/F3 cells, retroviral pBabe-Puro vector
Description: (§1) Data represent the ratio of the IC50 value for a given TKI for cells with a classical-like EGFR mutation to the IC50 value for cells with wildtype EGFR.
(§2) Ba/F3 cell generation, drug screening, and IC50 approximations. Ba/F3 cells were obtained as a gift from Dr. Gordon Mills (MD Anderson Cancer Center), and maintained in RPMI (Sigma) containing 10% FBS, 1% penicillin/streptomycin, and 10 ng/ml recombinant mIL-3 (R&D Biosystems). To establish stable Ba/F3 cell lines, Ba/F3 cells were transduced with retroviruses containing mutant EGFR plasmids for 12-24 hours.
(§3) After 48-72 hours of transduction, 2 μg/ml puromycin (Invitrogen) was added to Ba/F3 cell lines in complete RPMI. To select for EGFR positive cell lines, cells were stained with PE-EGFR (Biolegend) and sorted by FACS. After sorting, EGFR positive cells were maintained in RPMI containing 10% FBS, 1% penicillin/streptomycin, and 1 ng/ml EGF to support cell viability. […] Shortly, cells were plated in 384-well plates (Greiner Bio-One) at 2000-3000 cells per well in technical triplicate. Seven different concentrations of TKIs or DMSO vehicle were added to reach a final volume of 40 μL per well. After 72 hours, 11 μL of Cell Titer Glo (Promega) was added to each well. Plates were incubated for a minimum of 10 minutes, and bioluminescence was determined using a FLUOstar OPTIMA plate reader (BMG LABTECH). Raw bioluminescence values were normalized to DMSO control treated cells, and values were plotted in GraphPad Prism. […] Drug screens were performed in technical triplicate on each plate and either duplicate or triplicate biological replicates.

EGFR L858R/V834L = molecular target: T2, EGFR L858R/V834L (Homo sapiens, UniProt P00533, L858R/V834L); details: Classical-Like, 72 hours
T2 construct: expressed in transfected cells; host or cells: Ba/F3 cells, retroviral pBabe-Puro vector

EGFR Ex19del = molecular target: T3, EGFR Ex19del (Homo sapiens, UniProt P00533, DEL746-750); details: Classical-Like, 72 hours
T3 construct: expressed in transfected cells; host or cells: Ba/F3 cells, retroviral pBabe-Puro vector
Description: as §1, §2, §3

EGFR L858R = molecular target: T4, EGFR L858R (Homo sapiens, UniProt P00533, L858R); details: Classical-Like, 72 hours
T4 construct: expressed in transfected cells; host or cells: Ba/F3 cells, retroviral pBabe-Puro vector

EGFR L858R S784F = molecular target: T5, EGFR L858R S784F (Homo sapiens, UniProt P00533, L858R/S784F); details: Classical-Like, 72 hours
T5 construct: expressed in transfected cells; host or cells: Ba/F3 cells, retroviral pBabe-Puro vector (vector made by GeneScript from EGFR L858R)
Description: as §1, §2, §3

EGFR A767insASV = molecular target: T6, EGFR A767insASV (Homo sapiens, UniProt P00533, DUP767-769); details: Ex20, 72 hours
T6 construct: expressed in transfected cells; host or cells: Ba/F3 cells, retroviral pBabe-Puro vector

EGFR S768dupSVD V769M = molecular target: T7, EGFR S768dupSVD V769M (Homo sapiens, UniProt P00533, INS768MDS/V769M); details: Ex20, 72 hours
T7 construct: expressed in transfected cells; host or cells: Ba/F3 cells, retroviral pBabe-Puro vector (vector made by GeneScript from EGFR S768dupSVD, c.2305G > A)
Description: (§4) Data represent the ratio of the IC50 value for a given TKI for cells with an ex20ins EGFR mutation to the IC50 value for cells with wildtype EGFR.
as §2
(§5) After 48-72 hours of transduction, 2 μg/ml puromycin (Invitrogen) was added to Ba/F3 cell lines in complete RPMI. To select for EGFR positive cell lines, cells were stained with PE-EGFR (Biolegend) and sorted by FACS. After sorting, EGFR positive cells were maintained in RPMI containing 10% FBS, 1% penicillin/streptomycin, and 1 ng/ml EGF to support cell viability. Drug screening was performed as previously described^41,42. Shortly, cells were plated in 384-well plates (Greiner Bio-One) at 2000-3000 cells per well in technical triplicate. Seven different concentrations of TKIs or DMSO vehicle were added to reach a final volume of 40 μL per well. After 72 hours, 11 μL of Cell Titer Glo (Promega) was added to each well. Plates were incubated for a minimum of 10 minutes, and bioluminescence was determined using a FLUOstar OPTIMA plate reader (BMG LABTECH). Raw bioluminescence values were normalized to DMSO control treated cells, and values were plotted in GraphPad Prism. […] Drug screens were performed in technical triplicate on each plate and either duplicate or triplicate biological replicates. […] Statistical differences between groups were determined by ANOVA as described in the figure legends.

EGFR H773insNPH = molecular target: T8, EGFR H773insNPH (Homo sapiens, UniProt P00533, INS773NPH); details: Ex20, 72 hours
T8 construct: expressed in transfected cells; host or cells: Ba/F3 cells, retroviral pBabe-Puro vector
Description: as §4, §2, §5

[1] = molecular target: T9, EGFR L747_K754del insATSPE (Homo sapiens, UniProt P00533, DEL747-749/K754E); details: T790M-like-3S, 72 hours
T9 construct: expressed in transfected cells; host or cells: Ba/F3 cells, retroviral pBabe-Puro vector

EGFR L858R/T790M = molecular target: T10, EGFR L858R/T790M (Homo sapiens, UniProt P00533, L858R/T790M); details: T790M-like-3S, 72 hours
T10 construct: expressed in transfected cells; host or cells: Ba/F3

EGFR G719A T790M = molecular target: T11, EGFR G719A T790M (Homo sapiens, UniProt P00533, G719A/T790M); details: T790M-like-3S, 72 hours
T11 construct: expressed in transfected cells; host or cells: Ba/F3
Description: (§6) Data represent the ratio of the IC50 value for a given TKI for cells with a T790M-like-3S EGFR mutation to the IC50 value for cells with wildtype EGFR.
as §2
(§7) After 48-72 hours of transduction, 2 μg/ml puromycin (Invitrogen) was added to Ba/F3 cell lines in complete RPMI. To select for EGFR positive cell lines, cells were stained with PE-EGFR (Biolegend) and sorted by FACS. After sorting, EGFR positive cells were maintained in RPMI containing 10% FBS, 1% penicillin/streptomycin, and 1 ng/ml EGF to support cell viability. Drug screening was performed as previously described^41,42. Shortly, cells were plated in 384-well plates (Greiner Bio-One) at 2000-3000 cells per well in technical triplicate. Seven different concentrations of TKIs or DMSO vehicle were added to reach a final volume of 40 μL per well. After 72 hours, 11 μL of Cell Titer Glo (Promega) was added to each well. Plates were incubated for a minimum of 10 minutes, and bioluminescence was determined using a FLUOstar OPTIMA plate reader (BMG LABTECH). Raw bioluminescence values were normalized to DMSO control treated cells, and values were plotted in GraphPad Prism. […] Drug screens were performed in technical triplicate on each plate and either duplicate or triplicate biological replicates.

EGFR G719S T790M = molecular target: T12, EGFR G719S T790M (Homo sapiens, UniProt P00533, G719S/T790M); details: T790M-like-3S, 72 hours
T12 construct: expressed in transfected cells; host or cells: Ba/F3
Description: as §6, §2, §7

EGFR S768I/T790M = molecular target: T13, EGFR S768I/T790M (Homo sapiens, UniProt P00533, S768I/T790M); details: T790M-like-3S, 72 hours
T13 construct: expressed in transfected cells; host or cells: Ba/F3
Description: as §6, §2, §7

EGFR Ex19del/T790M/G724S = molecular target: T14, EGFR Ex19del/T790M/G724S (Homo sapiens, UniProt P00533, DEL746-750/G724S/T790M); details: T790M-like-3S, 72 hours
T14 construct: expressed in transfected cells; host or cells: Ba/F3
Description: as §6, §2, §7

EGFR G724S T790M = molecular target: T15, EGFR G724S T790M (Homo sapiens, UniProt P00533, G724S/T790M); details: T790M-like-3R, 72 hours
T15 construct: expressed in transfected cells; host or cells: Ba/F3
Description: Data represent the ratio of the IC50 value for a given TKI for cells with a T790M-like-3R EGFR mutation to the IC50 value for cells with wildtype EGFR.
as §2
After 48-72 hours of transduction, 2 μg/ml puromycin (Invitrogen) was added to Ba/F3 cell lines in complete RPMI. To select for EGFR positive cell lines, cells were stained with PE-EGFR (Biolegend) and sorted by FACS. After sorting, EGFR positive cells were maintained in RPMI containing 10% FBS, 1% penicillin/streptomycin, and 1 ng/ml EGF to support cell viability. […] Shortly, cells were plated in 384-well plates (Greiner Bio-One) at 2000-3000 cells per well in technical triplicate. Seven different concentrations of TKIs or DMSO vehicle were added to reach a final volume of 40 μL per well. After 72 hours, 11 μL of Cell Titer Glo (Promega) was added to each well. Plates were incubated for a minimum of 10 minutes, and bioluminescence was determined using a FLUOstar OPTIMA plate reader (BMG LABTECH). Raw bioluminescence values were normalized to DMSO control treated cells, and values were plotted in GraphPad Prism. […] Drug screens were performed in technical triplicate on each plate and either duplicate or triplicate biological replicates. […] Statistical differences between groups were determined by ANOVA as described in the figure legends.

EGFR E709_T710del insD = molecular target: T16, EGFR E709_T710del insD (Homo sapiens, UniProt P00533, DEL709-709/T710D)
T16 construct: expressed in transfected cells; host or cells: Ba/F3

EGFR E709A G719S = molecular target: T17, EGFR E709A G719S (Homo sapiens, UniProt P00533, E709A/G719S)
T17 construct: expressed in transfected cells; host or cells: Ba/F3

EGFR E709A = molecular target: T18, EGFR E709A (Homo sapiens, UniProt P00533, E709A)
T18 construct: expressed in transfected cells; host or cells: Ba/F3
Description: (§8) Data represent the ratio of the IC50 value for a given TKI for cells with a PACC EGFR mutation to the IC50 value for cells with wildtype EGFR.
as §2, §7

EGFR L718V = molecular target: T19, EGFR L718V (Homo sapiens, UniProt P00533, L718V)
T19 construct: expressed in transfected cells; host or cells: Ba/F3

EGFR G719A/R776C = molecular target: T20, EGFR G719A/R776C (Homo sapiens, UniProt P00533, G719A/R776C)
T20 construct: expressed in transfected cells; host or cells: Ba/F3
Description: as §8, §2, §7

EGFR G724S = molecular target: T21, EGFR G724S (Homo sapiens, UniProt P00533, G724S)
T21 construct: expressed in transfected cells; host or cells: Ba/F3

EGFR V774M = molecular target: T22, EGFR V774M (Homo sapiens, UniProt P00533, V774M)
T22 construct: host or cells: Ba/F3
Description: as §8, §2, §7

EGFR L858R L718Q = molecular target: T23, EGFR L858R L718Q (Homo sapiens, UniProt P00533, L718Q/L858R)
T23 construct: host or cells: Ba/F3
Description: as §8, §2, §7

EGFR Ex19del G724S = molecular target: T24, EGFR Ex19del G724S (Homo sapiens, UniProt P00533, DEL746-750/G724S)
T24 construct: expressed in transfected cells; host or cells: Ba/F3

EGFR L858R/C797S = molecular target: T25, EGFR L858R/C797S (Homo sapiens, UniProt P00533, C797S/L858R)
T25 construct: expressed in transfected cells; host or cells: Ba/F3

EGFR Ex19del T854I = molecular target: T26, EGFR Ex19del T854I (Homo sapiens, UniProt P00533, DEL746-750/T854I)
T26 construct: expressed in transfected cells; host or cells: Ba/F3 (retroviral transduction, pBabe-Puro based vectors)

Row | ratio of IC50 for cells with mutant EGFR to IC50 for cells with wildtype EGFR (Mut/WT) (EGFR L833F) | ratio of IC50 for cells with mutant EGFR to IC50 for cells with wildtype EGFR (Mut/WT) (EGFR L858R/V834L) | ratio of IC50 for cells with mutant EGFR to IC50 for cells with wildtype EGFR (Mut/WT) (EGFR L858R) | ratio of IC50 for cells with mutant EGFR to IC50 for cells with wildtype EGFR (Mut/WT) (EGFR L858R S784F) | ratio of IC50 for cells with mutant EGFR to IC50 for cells with wildtype EGFR (Mut/WT) (EGFR A767insASV) | ratio of IC50 for cells with mutant EGFR to IC50 for cells with wildtype EGFR (Mut/WT) (EGFR S768dupSVD V769M) | ratio of IC50 for cells with mutant EGFR to IC50 for cells with wildtype EGFR (Mut/WT) (EGFR H773insNPH) | ratio of IC50 for cells with mutant EGFR to IC50 for cells with wildtype EGFR (Mut/WT) [1] | ratio of IC50 for cells with mutant EGFR to IC50 for cells with wildtype EGFR (Mut/WT) (EGFR L858R/T790M) | ratio of IC50 for cells with mutant EGFR to IC50 for cells with wildtype EGFR (Mut/WT) (EGFR G719A T790M) | ratio of IC50 for cells with mutant EGFR to IC50 for cells with wildtype EGFR (Mut/WT) (EGFR G719S T790M) | ratio of IC50 for cells with mutant EGFR to IC50 for cells with wildtype EGFR (Mut/WT) (EGFR S768I/T790M) | ratio of IC50 for cells with mutant EGFR to IC50 for cells with wildtype EGFR (Mut/WT) (EGFR Ex19del/T790M/G724S) | ratio of IC50 for cells with mutant EGFR to IC50 for cells with wildtype EGFR (Mut/WT) (EGFR G724S T790M) | other results | Structure (SMILES)
1 | 0.1863 | 0.009314 | 0.002159 | 0.06448 | 3.057 | 3.097 | 1.645 | 5.465 | 10 | 0.9195 | 3.776 | 1.282 | 9.95 | 12.05 | ratio of IC50 for cells with mutant EGFR to IC50 for cells with wildtype EGFR (Mut/WT) (EGFR Ex19del): 0.005832; ratio of IC50 for cells with mutant EGFR to IC50 for cells with wildtype EGFR (Mut/WT) (EGFR E709_T710del insD; PACC, E709_T710del insD, Ba/F3, 72 hours): 0.08391; ratio of IC50 for cells with mutant EGFR to IC50 for cells with wildtype EGFR (Mut/WT) (EGFR E709A G719S; PACC, E709A G719S, Ba/F3, 72 hours): 0.001614; ratio of IC50 for cells with mutant EGFR to IC50 for cells with wildtype EGFR (Mut/WT) (EGFR E709A; PACC, E709A, Ba/F3, 72 hours): 0.04024; ratio of IC50 for cells with mutant EGFR to IC50 for cells with wildtype EGFR (Mut/WT) (EGFR L718V; PACC, L718V, Ba/F3, 72 hours): 0.1103; ratio of IC50 for cells with mutant EGFR to IC50 for cells with wildtype EGFR (Mut/WT) (EGFR G719A/R776C; PACC, G719A/R776C, Ba/F3, 72 hours): 0.002518; ratio of IC50 for cells with mutant EGFR to IC50 for cells with wildtype EGFR (Mut/WT) (EGFR G724S; PACC, G724S, Ba/F3, 72 hours): 0.2379; ratio of IC50 for cells with mutant EGFR to IC50 for cells with wildtype EGFR (Mut/WT) (EGFR V774M; PACC, V774M, Ba/F3, 72 hours): 0.04513; ratio of IC50 for cells with mutant EGFR to IC50 for cells with wildtype EGFR (Mut/WT) (EGFR L858R L718Q; PACC, L858R L718Q, Ba/F3, 72 hours): 0.051; ratio of IC50 for cells with mutant EGFR to IC50 for cells with wildtype EGFR (Mut/WT) (EGFR Ex19del G724S; PACC, Ex19del G724S, Ba/F3, 72 hours): 0.1707; ratio of IC50 for cells with mutant EGFR to IC50 for cells with wildtype EGFR (Mut/WT) (EGFR L858R/C797S; PACC, L858R/C797S, Ba/F3, 72 hours): 0.04539; ratio of IC50 for cells with mutant EGFR to IC50 for cells with wildtype EGFR (Mut/WT) (EGFR Ex19del T854I; PACC, Ex19del T854I, Ba/F3, 72 hours): 0.4127 | COc1cc2ncnc(Nc3ccc(F)c(Cl)c3)c2cc1NC(=O)/C=C/CN1CCCCC1 [Dacomitinib]
2 | 0.08625 | 0.003768 | 0.03702 | 0.02456 | 10.93 | 2.831 | 5.102 | 2.781 | 0.0336 | 0.00108 | 0.003464 | 0.5236 | 0.02984 | 26.17 | ratio of the IC50 value for cells with a PACC EGFR mutation to the IC50 value for cells with wildtype EGFR (EGFR E709_T710del insD; Ba/F3 cells, EGFR E709_T710del insD (PACC), Mut/WT): 0.5663; ratio of the IC50 value for cells with a PACC EGFR mutation to the IC50 value for cells with wildtype EGFR (EGFR E709A G719S; Ba/F3 cells, EGFR E709A G719S (PACC), Mut/WT): 0.06878; ratio of the IC50 value for cells with a PACC EGFR mutation to the IC50 value for cells with wildtype EGFR (EGFR E709A; Ba/F3 cells, EGFR E709A (PACC), Mut/WT): 0.2759; ratio of the IC50 value for cells with a PACC EGFR mutation to the IC50 value for cells with wildtype EGFR (EGFR L718V; Ba/F3 cells, EGFR L718V (PACC), Mut/WT): 0.6184; ratio of the IC50 value for cells with a PACC EGFR mutation to the IC50 value for cells with wildtype EGFR (EGFR G719A/R776C; Ba/F3 cells, EGFR G719A/R776C (PACC), Mut/WT): 0.5224; ratio of the IC50 value for cells with a PACC EGFR mutation to the IC50 value for cells with wildtype EGFR (EGFR G724S; Ba/F3 cells, EGFR G724S (PACC), Mut/WT): 26.17; ratio of the IC50 value for cells with a PACC EGFR mutation to the IC50 value for cells with wildtype EGFR (EGFR V774M; Ba/F3 cells, EGFR V774M (PACC), Mut/WT): 0.9635; ratio of the IC50 value for cells with a PACC EGFR mutation to the IC50 value for cells with wildtype EGFR (EGFR L858R L718Q; Ba/F3 cells, EGFR L858R L718Q (PACC), Mut/WT): 3.064; ratio of the IC50 value for cells with a PACC EGFR mutation to the IC50 value for cells with wildtype EGFR (EGFR Ex19del G724S; Ba/F3 cells, EGFR Ex19del G724S (PACC), Mut/WT): 1.782; ratio of the IC50 value for cells with a PACC EGFR mutation to the IC50 value for cells with wildtype EGFR (EGFR L858R/C797S; Ba/F3 cells, EGFR L858R/C797S (PACC), Mut/WT): 28.05; ratio of the IC50 value for cells with a PACC EGFR mutation to the IC50 value for cells with wildtype EGFR (EGFR Ex19del T854I; Ba/F3 cells, EGFR Ex19del T854I (PACC), Mut/WT): 1.44 | C=CC(=O)Nc1cc(Nc2nccc(-n3cc(CN(C)C)c(-c4ccccc4)n3)n2)c(OC)cc1N1CCOCC1 [Lazertinib]

Source: US20240384350A1, “METHODS OF TREATING CANCER WITH KINASE INHIBITORS” (BOARD OF REGENTS, THE UNIVERSITY OF TEXAS SYSTEM, priority 2021, published 2024)
